The text below walks through data of PubChem BioAssay (NCI).

Structures are written as SMILES.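 Step 1: Grow cells in 96-well plates. Step 2: Expose to compound for 48 hours at 5 concentrations. Step 3: Interpolate endpoints linearly; if unreached, use highest concentration. GI50 marks 50% less growth. The concentration for full growth arrest is given as TGI.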 A value given as a limit tells only on which side of the number the result lay.

Assay in all cases: NCI-60 cell line screen, 48 h
The subject of experiment [1] is IGROV1 ovarian.
The subject of experiment [2] is M14 melanoma.
Experiment [3] concerns MOLT-4 leukemia.
Experiment [4] deals with NCI/ADR-RES ovarian.
In experiment [5] the test system is OVCAR-4 ovarian.
In experiment [6] the test system is OVCAR-5 ovarian.
For experiment [7], the system named is PC-3 prostate.
In experiment [8] the test system is SF-295 CNS.
The subject of experiment [9] is SR leukemia.
For experiment [10], the system named is TK-10 renal.

On to `O=S(=O)(O)c1ccc2cc3nn(-c4ccc(/C=C/c5ccc(-n6nc7cc8ccc(S(=O)(=O)O)cc8cc7n6)cc5S(=O)(=O)O)c(S(=O)(=O)O)c4)nc3cc2c1`, for which the GI50 is 27 µM in experiment [1]; 44.5 µM in [2]; 12.2 µM in experiment [3]; over 100 µM in [4]; over 100 µM in experiment [5]; 62.5 µM in experiment [6]. The GI50 in experiment [7] was 74.7 µM; in experiment [8], over 100 µM; in experiment [9], 34.4 µM; in experiment [10], 10.6 µM. The TGI in experiment [1] is over 100 µM; in experiment [2], over 100 µM; in [3], 81.7 µM; in [4], over 100 µM; in experiment [5], over 100 µM; in experiment [6], over 100 µM. Further, the TGI in experiment [7], in experiment [8], in experiment [9] and in experiment [10] was over 100 µM in each case.
On to `O=C1C(Nc2cccc(O)c2)=C(Sc2ccccc2)C(=O)N1Cc1ccccc1`, for which the GI50 in experiment [2] is 5.35 µM; in experiment [3], 2.78 µM; in experiment [4], 11.5 µM; in [5] it was 5.33 µM; in experiment [6] it was 18.2 µM; in experiment [7], 2.15 µM. For the same compound, the GI50 in experiment [8] is 13.5 µM; in [9], 4.74 µM. Besides, the TGI stood at 19.5 µM in experiment [2]; 12.3 µM in experiment [3]; 31.9 µM in experiment [4]; 49.6 µM in [5]; 34.1 µM in [6]; 14.3 µM in experiment [7]. Also, the TGI was found to be 50.2 µM in experiment [8], 21.2 µM in [9] and 16.8 µM in experiment [10].
With `C[C@H]1CN(C2COC2)CCN1c1ccc(Nc2cc(-c3ccnc(N4CCn5c(cc6c5CC(C)(C)C6)C4=O)c3CO)cn(C)c2=O)nc1`, the GI50 in [1] is 19.7 µM; in experiment [3], 14.3 µM; in [4] it was 47.8 µM; in [5], 22.4 µM; in [6] it was 73 µM; in [7] it was 36.6 µM. The GI50 in experiment [8] was 68.6 µM; in experiment [9], 23.1 µM; in experiment [10], 38.7 µM. Moreover, the TGI in experiment [1], in experiment [3], in experiment [4], in experiment [5], in [6] and in experiment [7] was over 100 µM in each case. In addition, the TGI in experiment [8], in experiment [9] and in [10] was over 100 µM each time.
For `COc1ccc(-c2c3c(N)c4c(nc3nc3c2c(C)nn3-c2ccccc2)CCCC4)cc1`, the GI50 in [1] was 4.26 µM; in [2] it was 3.74 µM; in [3], 2.3 µM; in [4] it was 3.41 µM; in experiment [5] it was 3.22 µM; in experiment [6], 10.1 µM. Also, the figures for the GI50 in experiment [7], in [8] and in experiment [9] were 2.54 µM, 10.1 µM and 1.84 µM, respectively. Moreover, the TGI in experiment [1] is 18.6 µM; in experiment [2], 13 µM; in [3], 5.77 µM; in experiment [4], 14.2 µM; in experiment [5], 16.4 µM; in experiment [6], 23.2 µM. Moreover, the results for the TGI in experiment [7], in experiment [8] and in experiment [9] were 10.9 µM, 23.3 µM and 5.01 µM, respectively.
For the compound `Fc1ccc2nc(-c3nc(-c4ccccc4)n4ccccc34)[nH]c2c1`, the GI50 was 1.95 µM in [1]; 3.83 µM in experiment [2]; 3.6 µM in experiment [3]; 2.23 µM in [4]; 1.93 µM in experiment [5]; 3.07 µM in experiment [6]. For the same compound, the GI50 in experiment [7] was 1.82 µM; in experiment [9], 4.45 µM; in [10], 3.25 µM. Also, the TGI in experiment [1] is 5.3 µM; in experiment [2], 14.1 µM; in experiment [3], over 100 µM; in [4], 6.01 µM; in experiment [5], 6.31 µM; in [6] it was 9.04 µM. The TGI in [7] was 4.24 µM; in experiment [9] it was over 100 µM; in experiment [10], 6.72 µM.
Consider `Cc1ccc(S(=O)(=O)NC(=O)OC23COCN2COC3)cc1`, for which the TGI in experiment [1], in experiment [2], in [4], in experiment [5], in experiment [6] and in experiment [7] was over 100 µM throughout. In addition, the TGI in experiment [8], in experiment [9] and in experiment [10] was over 100 µM in each case.
Consider `Clc1ccc([I+]c2ccc(Cl)cc2Cl)c(Cl)c1`, for which the GI50 is 2.58 µM in [2]; 2.5 µM in experiment [3]; 9.47 µM in experiment [4]; 1.95 µM in [5]; 1.8 µM in [6]; 1.94 µM in experiment [7]. Further, the GI50 in [8] was 2.58 µM; in experiment [9], 2.19 µM. The TGI in experiment [2] amounted to 6.07 µM; in experiment [3] it was 6.62 µM; in [4] it was 32 µM; in [5], 4.52 µM; in [6] it was 3.8 µM; in experiment [7], 4.72 µM. Further, the TGI in experiment [8] was 7.57 µM; in experiment [9], 5.65 µM.
As for `COC1=C(OC)C(=O)C(CCCCCCCCCCO)=C(C)C1=O`, the GI50 in [1] is 9.74 µM; in [2], 15 µM; in experiment [3], 4.54 µM; in experiment [4] it was 3.34 µM; in experiment [5], 1.29 µM; in experiment [6], 10.7 µM. For the same compound, the GI50 in experiment [7] is 3.76 µM; in experiment [9], 3.18 µM; in experiment [10], 16.6 µM. The TGI in experiment [1] was found to be 29.7 µM; in experiment [2], 31 µM; in [3] it was 21.7 µM; in [4], 13 µM; in experiment [5], 2.6 µM; in experiment [6] it was 25.5 µM. The TGI in experiment [7] worked out at 15.6 µM; in experiment [9], 19 µM; in [10] it was 30.6 µM.
